Measured values: patent US8822449B2, “Substituted aminoindanes and analogs thereof, and the pharmaceutical use thereof” (Sanofi, priority 2008, dated 2014)

Target: T1, sodium-proton exchanger of subtype 3 (NHE3) (Homo sapiens, UniProt P48764)
T1 construct: expressed in transfected cells
T1 sequence (P48764 26-834): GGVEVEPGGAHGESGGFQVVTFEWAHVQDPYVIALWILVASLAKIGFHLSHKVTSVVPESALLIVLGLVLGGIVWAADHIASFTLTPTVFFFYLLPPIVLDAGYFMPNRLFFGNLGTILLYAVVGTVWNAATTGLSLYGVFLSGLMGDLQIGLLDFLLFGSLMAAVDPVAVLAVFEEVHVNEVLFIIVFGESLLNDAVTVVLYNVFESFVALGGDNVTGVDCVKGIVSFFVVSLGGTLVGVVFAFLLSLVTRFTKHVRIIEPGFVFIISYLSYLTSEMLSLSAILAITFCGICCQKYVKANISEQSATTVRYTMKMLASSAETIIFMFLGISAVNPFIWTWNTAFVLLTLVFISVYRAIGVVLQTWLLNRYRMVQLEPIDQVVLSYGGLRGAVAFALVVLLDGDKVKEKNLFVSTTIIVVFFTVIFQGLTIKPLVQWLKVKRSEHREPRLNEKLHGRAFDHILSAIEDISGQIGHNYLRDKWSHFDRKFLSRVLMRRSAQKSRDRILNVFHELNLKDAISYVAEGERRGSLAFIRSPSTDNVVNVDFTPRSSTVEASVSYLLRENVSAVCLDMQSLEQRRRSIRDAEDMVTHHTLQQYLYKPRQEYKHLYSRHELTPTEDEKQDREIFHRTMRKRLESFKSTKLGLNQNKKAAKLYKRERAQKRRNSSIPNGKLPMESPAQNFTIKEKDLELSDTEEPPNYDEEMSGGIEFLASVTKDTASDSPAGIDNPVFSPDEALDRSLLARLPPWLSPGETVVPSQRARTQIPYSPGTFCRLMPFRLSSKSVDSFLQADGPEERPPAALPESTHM
Assay: Recovery of intracellular pH (pHi) after acidification in LAP1 cells stably expressing NHE3 (BCECF fluorescence, FLIPR)
Type: cell-based
Details: LAP1 cells stably expressing NHE3; pH recovery after acidification; range 1 is % inhibition at 10 μM; read-out: Activity range (inhibitory effect on NHE3)

With `c1ccc2c(c1)CC[C@H](N1CCOCC1)[C@H]2Oc1cnc2ccccc2c1` (racemic) [Example 400, 3-(rac-trans-(1,2)-2-morpholin-4-yl-1,2,3,4-tetrahydronaphthalen-1-yloxy)quinoline] the inhibition at 10 µM was 20 to 50%.

In the case of `O=S1(=O)CCCN1c1cccc(O[C@H]2c3ccccc3C[C@@H]2N2CCCC2)c1` (racemic) [Example 363, 2-[3-(rac-trans-(1,2)-2-pyrrolidin-1-ylindan-1-yloxy)phenyl]isothiazolidine 1,1-dioxide], the IC50 is reported as 1000 to 10000 nM.

`FC(F)(F)c1cnccc1O[C@H]1c2ccccc2C[C@@H]1CN1CCCC1` (racemic) [Example 462, 4-(2-pyrrolidin-1-ylmethylindan-1-yloxy)-3-trifluoromethylpyridine] gave an inhibition at 10 µM of 20 to 50%.

`CC1(C)NC(=O)N(c2ccc(O[C@H]3c4cc(Cl)cc(Cl)c4C[C@@H]3N3CC[C@@H](O)C3)cc2)C1=O` [Example 425, 3-{4-[(1S,2S)-4,6-dichloro-2-((R)-3-hydroxypyrrolidin-1-yl)indan-1-yloxy]phenyl}-5,5-dimethylimidazolidine-2,4-dione] showed an IC50 of under 1000 nM.

In the case of `NS(=O)(=O)c1ccc(O[C@H]2c3ccccc3C[C@@H]2CN2CCCC2)c(F)c1` (racemic) [Example 452, 3-fluoro-4-(2-pyrrolidin-1-ylmethylindan-1-yloxy)benzenesulfonamide], the IC50 is reported as 1000 to 10000 nM.

In the case of `O[C@@H]1CCN([C@H]2Cc3c(Cl)cc(Cl)cc3[C@@H]2Oc2ccc(F)cc2-c2ccn[nH]2)C1` [Example 137, (R)-1-{trans-(1S,2S)-4,6-dichloro-1-[4-fluoro-2-(2H-pyrazol-3-yl)phenoxy]indan-2-yl}pyrrolidin-3-ol], the inhibition at 10 µM is reported as 20 to 50%.

Work on `N[C@@H]1CCCN([C@H]2CCc3ccccc3[C@@H]2Oc2ccc(F)c(F)c2)C1` (racemic) [Example 51, (R)-1-[rac-trans-(1,2)-1-(3,4-difluorophenoxy)-1,2,3,4-tetrahydronaphthalen-2-yl]piperidin-3-ylamine] yielded an inhibition at 10 µM of 20 to 50%.

In the case of `NC(=O)Cc1c[nH]c2ccc(O[C@@H]3c4ccccc4C[C@H]3N3CCC(N)C3)cc12` (mixture of isomers) [Example 387, 2-{5-[rac-trans-(1,2)-2-(3-aminopyrrolidin-1-yl)indan-1-yloxy]-1H-indol-3-yl}acetamide], the IC50 is reported as 1000 to 10000 nM.

`Cc1c(O[C@H]2c3cc(Cl)cc(F)c3C[C@@H]2N2CC[C@@H](O)C2)ccc(-n2c(C)nnc2C)c1C` [Example 141, (R)-1-{trans-(1S,2S)-6-chloro-1-[4-(3,5-dimethyl-[1,2,4]triazol-4-yl)-2,3-dimethylphenoxy]-4-fluoroindan-2-yl}pyrrolidin-3-ol] gave an IC50 of under 1000 nM.

`NCC1CCN([C@@H]2Cc3ccccc3[C@H]2Oc2cccc(NC(N)=O)c2)CC1` (racemic) [Example 235, {3-[rac-trans-(1,2)-2-(4-aminomethylpiperidin-1-yl)indan-1-yloxy]phenyl}urea] gave an IC50 of 1000 to 10000 nM.

`CS(=O)(=O)c1ccccc1O[C@H]1c2ccccc2CC[C@@H]1N1CCC[C@@H](N)C1` (racemic) [Example 45, (R)-1-[rac-trans-(1,2)-1-(2-methanesulfonylphenoxy)-1,2,3,4-tetrahydronaphthalen-2-yl]piperidin-3-ylamine] was tested, and the inhibition at 10 µM was 20 to 50%.

For `N[C@H]1CCCN([C@H]2CCc3ccccc3[C@@H]2Oc2ccc3oc(=O)sc3c2)C1` (racemic) [Example 580, 5-[rac-trans-(1,2)-2-((S)-3-aminopiperidin-1-yl)-1,2,3,4-tetrahydronaphthalen-1-yloxy]benzo[1,3]oxathiol-2-one], the inhibition at 10 µM was 20 to 50%.

`O=C1CNC(=O)N1c1ccc(F)c(O[C@H]2c3cc(Cl)cc(F)c3C[C@@H]2N2CC[C@@H](O)C2)c1` [Example 421, 3-{3-[(1S,2S)-6-chloro-4-fluoro-2-((R)-3-hydroxypyrrolidin-1-yl)indan-1-yloxy]-4-fluorophenyl}imidazolidine-2,4-dione] gave an IC50 of 1000 to 10000 nM.

With `Cc1nnc(C)n1-c1ccc(O[C@H]2c3ccccc3C[C@@H]2N2CCC[C@@H](N)C2)cc1` [Example 121, (R)-1-{trans-(1S,2S)-1-[4-(3,5-dimethyl-[1,2,4]triazol-4-yl)phenoxy]indan-2-yl}piperidin-3-ylamine] the IC50 was 1000 to 10000 nM.

Molecule `Cc1cn(-c2ccc(O[C@H]3c4cc(Cl)cc(Cl)c4C[C@@H]3N3CC[C@@H](O)C3)cc2)c(C(C)C)n1` [Example 714, (R)-1-{trans-(1S,2S)-4,6-Dichloro-1-[4-(2-isopropyl-4-methyl-imidazol-1-yl)-phenoxy]-indan-2-yl}-pyrrolidin-3-ol] has an IC50 of 1000 to 10000 nM.

For `O=[N+]([O-])c1ccc(O[C@H]2c3ccccc3C[C@@H]2N2CCCC2)c(Cl)c1` (racemic) [Example 251, 1-[1-(2-chloro-4-nitrophenoxy)indan-2-yl]pyrrolidine], the inhibition at 10 µM was 20 to 50%.

Molecule `CN(C)Cc1cccc(O[C@@H]2c3ccccc3C[C@H]2N2CCC[C@H](N)C2)c1` (racemic) [Example 167, (S)-1-[rac-trans-(1,2)-1-(3-dimethylaminomethylphenoxy)indan-2-yl]piperidin-3-ylamine] has an IC50 of 1000 to 10000 nM.

`N[C@@H]1CCCN([C@@H]2Cc3ccccc3[C@H]2Oc2ccc3oc(=O)sc3c2)C1` (racemic) [Example 579, 5-[rac-trans-(1,2)-2-((R)-3-aminopiperidin-1-yl)indan-1-yloxy]benzo[1,3]oxathiol-2-one] showed an IC50 of 1000 to 10000 nM.

Work on `N[C@H]1CCCN([C@@H]2Cc3ccccc3[C@H]2Oc2ccc(-n3cncn3)cc2)C1` (racemic) [Example 172, (S)-1-[rac-trans-(1,2)-1-(4-[1,2,4]triazol-1-ylphenoxy)indan-2-yl]piperidin-3-ylamine] yielded an IC50 of 1000 to 10000 nM.

Molecule `Cc1ccc(F)c(O[C@H]2c3ccccc3CC[C@@H]2N2CCC[C@H](N)C2)c1` (racemic) [Example 155, (S)-1-[rac-trans-(1,2)-1-(2-fluoro-5-methylphenoxy)-1,2,3,4-tetrahydronaphthalen-2-yl]piperidin-3-ylamine] has an inhibition at 10 µM of 20 to 50%.

With `CC(=O)Nc1cccc(O[C@H]2c3cc(Cl)cc(Cl)c3C[C@@H]2N2CCOCC2)c1` (racemic) [Example 646, N-[3-(rac-trans-(1,2)-4,6-dichloro-2-morpholin-4-ylindan-1-yloxy)phenyl]acetamide] the inhibition at 10 µM was 20 to 50%.

For `O=C1CNC(=O)N1c1ccc(Cl)c(O[C@H]2c3cc(Cl)cc(Cl)c3C[C@@H]2N2CC[C@@H](O)C2)c1` [Example 433, 3-{4-chloro-3-[(1S,2S)-4,6-dichloro-2-((R)-3-hydroxypyrrolidin-1-yl)indan-1-yloxy]phenyl}imidazolidine-2,4-dione], the IC50 was 1000 to 10000 nM.

`Cc1cc(C)c2cccnc2c1O[C@H]1c2ccccc2CC[C@@H]1N1CCOCC1` (racemic) [Example 573, 5,7-dimethyl-8-(rac-trans-(1,2)-2-morpholin-4-yl-1,2,3,4-tetrahydronaphthalen-1-yloxy)quinoline] showed an inhibition at 10 µM of 20 to 50%.

For `Cc1noc(C)c1-c1cc(O[C@H]2c3ccccc3C[C@@H]2N2CCCC2)ccc1F` [Example 489, 4-[2-fluoro-5-(trans-(1S,2S)-2-pyrrolidin-1-ylindan-1-yloxy)phenyl]-3,5-dimethylisoxazole], the inhibition at 10 µM was 20 to 50%.

Molecule `N[C@@H]1CCCN([C@@H]2Cc3ccccc3[C@H]2Oc2ccc(-n3cncn3)cc2)C1` (racemic) [Example 62, (R)-1-[rac-trans-(1,2)-1-(4-[1,2,4]triazol-1-ylphenoxy)indan-2-yl]piperidin-3-ylamine] has an IC50 of under 1000 nM.

For `Cc1cc(C#N)cc(C)c1O[C@H]1c2ccccc2CC[C@@H]1N1CCC[C@@H](N)C1` (racemic) [Example 511, 4-[rac-trans-(1,2)-2-((R)-3-aminopiperidin-1-yl)-1,2,3,4-tetrahydronaphthalen-1-yloxy]-3,5-dimethylbenzonitrile], the inhibition at 10 µM was 20 to 50%.

`Cn1ccn(-c2ccc(Cl)c(O[C@H]3c4cc(Cl)cc(Cl)c4C[C@@H]3N3CC[C@@H](O)C3)c2)c1=O` [Example 335, 1-{4-chloro-3-[(1S,2S)-4,6-dichloro-2-((R)-3-hydroxypyrrolidin-1-yl)indan-1-yloxy]phenyl}-3-methyl-1,3-dihydroimidazol-2-one] was tested, and the IC50 was under 1000 nM.

For `O=C1COC(=O)N1c1ccc(O[C@H]2c3cc(Cl)cc(Cl)c3C[C@@H]2N2CC[C@@H](O)C2)cc1` [Example 427, 3-{4-[(1S,2S)-4,6-dichloro-2-((R)-3-hydroxypyrrolidin-1-yl)indan-1-yloxy]phenyl}oxazolidine-2,4-dione], the IC50 was 1000 to 10000 nM.

`CCc1ccc(O[C@@H]2c3ccccc3C[C@H]2N2CCC(CN)CC2)c(C(C)(C)C)c1` (racemic) [Example 609, C-{1-[rac-trans-(1,2)-1-(2-tert-butyl-4-ethylphenoxy)indan-2-yl]piperidin-4-yl}methylamine] was tested, and the IC50 was 1000 to 10000 nM.

`Cn1ccn(-c2ccc(F)c(O[C@H]3c4cc(F)cc(F)c4C[C@@H]3N3CC[C@@H](O)C3)c2)c1=O` [Example 317, 1-{3-[(1S,2S)-4,6-difluoro-2-((R)-3-hydroxypyrrolidin-1-yl)indan-1-yloxy]-4-fluorophenyl}-3-methyl-1,3-dihydroimidazol-2-one] gave an IC50 of 1000 to 10000 nM.
